From patent publication US20140275233A1, “ACTIVATED SOY POD FIBER” (priority 2013, published 2014)
Values joined by “and” are separate entries in the source; they are usually repeats but may differ in a detail not shown here. Equal entries are not always repeated.

System: 3T3-L1 adipocytes
Experiment: [3H]-2-deoxy-glucose uptake by adipocytes
Format: cell-based, Murine
Protocol: To determine if one mechanism for glyceollins to improve the oral glucose challenge in a prediabetic model is by increasing the glucose uptake by fat, glyceollin pharmacology was studied in 3T3-L1 cells. Murine preadipocytes (Zen-Bio Inc.) were cultured using PM-1-L1 medium (Zen-Bio Inc.) containing Dulbecco's modified Eagle's medium (DMEM)/Ham's F-10 medium (1:1, v/v), HEPES 15 mM (pH 7.4), 10% (v/v) fetal bovine serum, penicillin (100 U/ml), streptomycin ([…]), and amphotericin B (0.25 μg/ml) in a humidified atmosphere (5% CO2/95% air). After 3-4 days, confluent cells were placed in differentiation medium (DM-2-L1, Zen-Bio Inc.) containing DMEM/Ham's F-10 medium (1:1, v/v), HEPES 15 mM (pH 7.4), 3% (v/v) fetal bovine serum, biotin (33 μM), pantothenate (17 μM), human insulin (100 nM), dexamethasone (1 μM), penicillin (100 U/ml), streptomycin (100 μg/ml), amphotericin B (0.25 μg/ml), isobutylmethylxanthine ([…]) and PPARγ agonist (10 μM) and further incubated in the humidified atmosphere for 3 days. […]
Adipocytes were rinsed in sterile, fresh KRH buffer (HEPES pH=7.4, 1 mM CaCl2, 1.2 mM MgSO4, 1 mM KH2PO4, 1.4 mM KCl, […], 130 mM NaCl), and then preincubated for 24 h in KRH buffer. […] The vials were mixed and counted for 10 min in an Applied Biosystems 1100 liquid scintillation counter using the factory preset window to detect tritium.

insulin
EC50 (30 min exposure at 37° C., 0.3-300 nM, n=6, read-out: EC50 of insulin-mediated glucose uptake): 1.9 nM and 1.92 nM | maximal stimulation of glucose uptake relative to basal (insulin 0.3 nM-300 nM): about 3 times
